Test results published in US20140357718A1 (priority 2013, published 2014).
Read-outs that look alike come from different tables or passages of the source.

What was measured:
Format in all cases: cell-based
Escherichia coli = experiment: Bacterial growth in pure culture with test composition (turbidity 660 nm); settings: E. coli, 9 h, 40° C., anaerobic
Clostridium perfringens = settings: C. perfringens, 23 h, 40° C., anaerobic
Campylobacter jejuni = experiment: Bacterial growth in pure culture with test composition (SYBR Green fluorescence); settings: C. jejuni, 19 h, 40° C., anaerobic
Lactobacillus crispatus = experiment: Bacterial growth in pure culture with test composition (turbidity 660 nm); settings: L. crispatus, 23 h, 40° C., anaerobic
[1] = free pH, 0.01% (w/v) composition
[2] = free pH, 0.1% (w/v) composition
[3] = free pH, 0.3% (w/v) composition
[4] = pH 6.5 (neutralised with NaOH), 0.01% (w/v) composition
[5] = pH 6.5 (neutralised with NaOH), 0.3% (w/v) composition
[6] = pH 6.5 (neutralised with NaOH), 0.1% (w/v) composition

SMILES: O=CO [Composition C, formic acid]
- Growth of Indicator Bacteria (% of Growth Control) (Escherichia coli; [1]): 80%
- Growth of Indicator Bacteria (% of Growth Control) (Escherichia coli; [2]): 20%
- Growth of Indicator Bacteria (% of Growth Control) (Escherichia coli; [3]): 15%
- Growth of Indicator Bacteria (% of Growth Control) (Escherichia coli; [4]): 110%
- Growth of Indicator Bacteria (% of Growth Control) (Escherichia coli; [5]): 45%
- Growth of Indicator Bacteria (% of Growth Control) (Clostridium perfringens; [1]): 75%
- Growth of Indicator Bacteria (% of Growth Control) (Clostridium perfringens; [2]): 20%
- Growth of Indicator Bacteria (% of Growth Control) (Clostridium perfringens; [3]): 15%
- Growth of Indicator Bacteria (% of Growth Control) (Clostridium perfringens; [4]): 100%
- Growth of Indicator Bacteria (% of Growth Control) (Clostridium perfringens; [6]): 65%
- Growth of Indicator Bacteria (% of Growth Control) (Clostridium perfringens; [5]): 60%
- Growth of Indicator Bacteria (% of Growth Control) (Campylobacter jejuni; [1]): 170%
- Growth of Indicator Bacteria (% of Growth Control) (Campylobacter jejuni; [2]): 20%
- Growth of Indicator Bacteria (% of Growth Control) (Campylobacter jejuni; [3]): 10%
- Growth of Indicator Bacteria (% of Growth Control) (Campylobacter jejuni; [4]): 170%
- Growth of Indicator Bacteria (% of Growth Control) (Campylobacter jejuni; [6]): 115%
- Growth of Indicator Bacteria (% of Growth Control) (Campylobacter jejuni; [5]): 65%
- Growth of Indicator Bacteria (% of Growth Control) (Lactobacillus crispatus; [1]): 95%
- Growth of Indicator Bacteria (% of Growth Control) (Lactobacillus crispatus; [2]): 90%
- Growth of Indicator Bacteria (% of Growth Control) (Lactobacillus crispatus; [3]): 75%
- Growth of Indicator Bacteria (% of Growth Control) (Lactobacillus crispatus; [4]): 120%
- Growth of Indicator Bacteria (% of Growth Control) (Lactobacillus crispatus; [6]): 115%
- Growth of Indicator Bacteria (% of Growth Control) (Lactobacillus crispatus; [5]): 95%
